# Results: a flash point compilation (Sun et al. 2020)
row,flash point,Compound
1,1.00 °C,C=C[CH2][Ge]([CH3])([CH3])[CH3] [ALLYLTRIMETHYLGERMANE]
2,51.00 °C,[CH3][Ge]([CH3])([CH2]Cl)[CH2]Cl [BIS(CHLOROMETHYL)DIMETHYLGERMANE]
3,107.00 °C,CCC[CH2][Ge]([Cl])([Cl])[CH2]CCC [DI-n-BUTYLDICHLOROGERMANE]
4,160.00 °C,[Cl][Ge]([Cl])([c]1ccccc1)[c]1ccccc1 [DIPHENYLDICHLOROGERMANE]
5,104.00 °C,c1cc[c]([GeH2][c]2ccccc2)cc1 [DIPHENYLGERMANE]
6,51.00 °C,C[CH2][Ge]([Cl])([Cl])[Cl] [ETHYLTRICHLOROGERMANE]
7,14.00 °C,[CH3][Ge]([CH3])([CH3])[Ge]([CH3])([CH3])[CH3] [HEXAMETHYLDIGERMANE]
8,63.00 °C,C=C(C)C(=O)O[CH2][Ge]([CH3])([CH3])[CH3] [METHACRYLOXYMETHYLTRIMETHYLGERMANE]
9,10.00 °C,[CH3][Ge]([Cl])([Cl])[Cl] [METHYLTRICHLOROGERMANE]
10,42.00 °C,C[CH2][Ge]([CH2]C)([CH2]C)[CH2]C [TETRAETHYLGERMANE]
11,34.00 °C,C[N](C)[Ge]([N](C)C)([N](C)C)[N](C)C [TETRAKIS(DIMETHYLAMINO)GERMANE]
12,34.00 °C,C[O][Ge]([O]C)([O]C)[O]C [TETRAMETHOXYGERMANE]
13,37.00 °C,[CH3][Ge]([CH3])([CH3])[Br] [TRIMETHYLBROMOGERMANE]
14,32.00 °C,C=[CH][Ge]([CH2]C)([CH2]C)[CH2]C [VINYLTRIETHYLGERMANE]
15,34.00 °C,C[C](C)(C)[Ge]([CH3])([CH3])[Cl] [t-BUTYLDIMETHYLCHLOROGERMANE]

row,Compound,flash point
1,CCCC[O][Ge]([O]CCCC)([O]CCCC)[O]CCCC [TETRA-n-BUTOXYGERMANE],112.00 °C

# Remark: another data set of the same source
row,Compound,flash point
1,C=[C](OCC)[Sn]([CH2]CCC)([CH2]CCC)[CH2]CCC [1-ETHOXYVINYLTRI-n-BUTYLTIN],113.00 °C
2,CCC[CH2][Sn]([CH2]CCC)([CH2]CCC)[c]1cccs1 [2-THIENYLTRI-n-BUTYLTIN],106.00 °C
3,C=C[CH2][Sn]([CH2]CCC)([CH2]CCC)[CH2]CCC [ALLYLTRI-n-BUTYLTIN],103.00 °C
4,C[Si](C)(C)[N]([Sn][N]([Si](C)(C)C)[Si](C)(C)C)[Si](C)(C)C [BIS[BIS(TRIMETHYLSILYL)AMINO]TIN(II)],56.00 °C
5,[CH3][Sn]([CH3])([CH3])[CH2]Cl [CHLOROMETHYLTRIMETHYLTIN],39.00 °C
6,CCC[CH2][Sn]([Cl])([Cl])[CH2]CCC [DI-n-BUTYLDICHLOROTIN],168.00 °C
7,CCC[CH2][Sn]([CH2]CCC)([CH2]CCC)[N](C)C [DIMETHYLAMINOTRI-n-BUTYLTIN],115.00 °C
8,CCCCCCC[CH2][Sn]([Cl])([Cl])[CH2]CCCCCCC [DIOCTYLDICHLOROTIN],204.00 °C
9,C=[CH][Sn]([Cl])([Cl])[CH]=C [DIVINYLDICHLOROTIN],204.00 °C
10,CCC[CH2][Sn]([C]#Cc1ccccc1)([CH2]CCC)[CH2]CCC [PHENYLETHYNYLTRI-n-BUTYLTIN],113.00 °C
11,CCC[CH2][Sn]([CH2]CCC)([CH2]CCC)[S]c1ccccc1 [PHENYLTHIOTRI-n-BUTYLTIN],104.00 °C
12,C=C[CH2][Sn]([CH2]C=C)([CH2]C=C)[CH2]C=C [TETRAALLYLTIN],75.00 °C
13,C[CH2][Sn]([CH2]C)([CH2]C)[CH2]C [TETRAETHYLTIN],53.00 °C
14,CC[N](CC)[Sn]([N](CC)CC)([N](CC)CC)[N](CC)CC [TETRAKIS(DIETHYLAMINO)TIN],39.00 °C
15,C=[CH][Sn]([CH]=C)([CH]=C)[CH]=C [TETRAVINYLTIN],40.00 °C
16,CCC[CH2][Sn]([CH2]CCC)([CH2]CCC)[O]C [TRI-n-BUTYLMETHOXYTIN],98.00 °C
17,[Cl][Sn]([c]1ccccc1)([c]1ccccc1)[c]1ccccc1 [TRIPHENYLCHLOROTIN],70.00 °C

# Remark: another data set of the same source
row,flash point,Compound
1,25.00 °C,CC(C)[O-].CC(C)[O-].CC(C)[O-].CC(C)[O-].[Ti+4] [TITANIUM ISOPROPOXIDE]
2,10.00 °C,CC[N-]C.CC[N-]C.CC[N-]C.CC[N-]C.[Ti+4] [TITANIUM TETRAKIS(ETHYLMETHYLAMIDE)]
3,45.00 °C,CCC[O-].CCC[O-].CCC[O-].CCC[O-].[Ti+4] [TITANIUM n-PROPOXIDE]
4,-1.00 °C,[CH3][Ga]([CH3])[CH3] [TRIMETHYLGALLIUM]

row,Compound,flash point
1,CC[N-]CC.CC[N-]CC.CC[N-]CC.CC[N-]CC.[Ti+4] [TITANIUM TETRAKIS(DIETHYLAMIDE)],37.00 °C
2,c1ccc(P(c2ccccc2)c2ccccc2)cc1 [TRIPHENYLPHOSPHINE],182.00 °C
3,C[N](C)[Ga]([N](C)C)[N](C)C [TRIS(DIMETHYLAMINO)GALLIUM],56.00 °C

# Remark: another data set of the same source
row,flash point,Compound
1,86 °C,C[Si](Cl)(Cl)CCCCl [3-Chloropropylmethyldichlorosilane]
2,-19 °C,"CN(C)[Si](C)(C)C [(N,N-Dimethylamino)trimethylsilane]"
3,22 °C,CC[Si](Cl)(Cl)Cl [Ethyltrichlorosilane]
4,-32 °C,C[SiH](Cl)Cl [Methyldichlorosilane]
5,60 °C,Cl[SiH](Cl)c1ccccc1 [Phenyldichlorosilane]
6,38 °C,C[SiH](C)c1ccccc1 [Phenyldimethylsilane]
7,112 °C,C=C[Si]1(C)[Si](C)(C=C)[Si](C)(C=C)[Si]1(C)C=C (centres undefined) [Tetramethyltetravinylcyclotetrasilane]

# Remark: another data set of the same source
row,flash point,Compound
1,-18.6 °C,"CN(C)[Si](C)(C)C [(N,N-Dimethylamino)trimethylsilane]"
2,-10.00 °C,CC[Si](Cl)(Cl)Cl [Ethyltrichlorosilane]
